One series relates to PAI-1. Put plainly: Western blot of PAI-1 in primary culture of human coronary artery smooth muscle cells. Conditions: 24 hr at 37° C. It counts as cell-based. In general terms: In western blotting, separated proteins are transferred to a membrane and probed.
The subject of the next series is renin gene expression. To be noted: in vitro and in vivo studies, recently found; cited from earlier work.
For the next series, the system named is renin mRNA expression. Put plainly: Northern blot analysis of renin mRNA expression in As4.1-hVDR cells. It counts as cell-based. The text has this: (§1) Using an in vitro cell culture system, the activity of paricalcitol to suppress renin gene expression was examined using previously published techniques (1,25-Dihydroxyvitamin D3 is a negative endocrine regulator of the renin-angiotensin system, J. Clin. Invest., July 2002). […] This inhibitory effect is confirmed by renin promoter-luciferase reporter assays, which examine the activity of paricalcitol to suppress renin gene transcription.

For a further series, the system named is 24(OH)ase. Put plainly: effect of drugs on the expression of 24(OH)ase. Conditions: compared with calcitriol. It is filed as cell-based. The method, then: Two observations may be noted in these studies: (1) 100% inhibition of growth was never achieved even at 1 μM of any of the test compound. Confocal microscopy studies confirm that, although these drugs are potent in inducing the translocation of VDR from cytoplasm to nucleus, not all cells respond to VDRAs even after 2 h of exposure, which may explain the <100% inhibition.

The subject of another series is renin gene promoter. Put plainly: renin promoter-luciferase reporter assay. To be noted: FIG. 2. It is filed as cell-based.
Text: as §1
(A reporter such as luciferase makes a cellular process visible.)

Series [1] concerns CKD Stage 3 and 4 patients. Put plainly: dipstick proteinuria in three randomized, double-blind, placebo-controlled studies in CKD Stage 3 and 4 patients with SHPT. It is filed as in vivo, human. The method, then: Paricalcitol capsule, a synthetic 3rd generation vitamin D analog, and selective vitamin receptor activator (SVDRA) was evaluated in three randomized, double-blind, placebo-controlled, multicenter studies in CKD Stage 3 and 4 patients with SHPT. Two studies dosed three times a week(TIW), no more often than every other day, and 1 study was conducted with once a day dosing regimen (QD). Data from these three studies were combined and analyzed for the following safety parameters: • Calcium and phosphorus metabolism, kidney function parameters and adverse event profile • Changes in dipstick proteinuria Method: • Randomized, double-blind, placebo controlled, multicenter studies with a Pre-treatment/Washout Phase of 1-4 weeks and a Treatment Phase of 24 weeks • Patients were randomized 1:1 to paricalcitol or placebo • Major entry criteria: • Age≧18 years • CKD patients with eGFR (MDRD formula) 15-60 mL/min/1.73 m^2 • Average of the last 2 iPTH values≧150 pg/mL, all values≧120 pg/mL (iPTH measured by Nichols first generation intact PTH assay) • 2 consecutive serum calcium values between 8.0-10.0 mg/dL, and 2 consecutive serum phosphorus values≦5.2 mg/dL • Spot urinary calcium-to-creatinine ratio<0.2 • Not taking maintenance calcitonin, bisphosphonates or drugs that may affect calcium or bone metabolism. • Not taking glucocorticoids for >14 days within the last 6 months. Concurrent Phosphate Binder Usage
Initial Dose: 2 or 4 mcg for TIW regimen and 1 or 2 mcg for QD regimen
Dose Increment: 2 mcg for TIW regimen and 1 mcg for QD regimen
Dose increases every 4 weeks, dose decreases every 2 weeks or sooner
Changes in proteinuria, measured by automated semiquantitative dipstick testing, were evaluated in 195 CKD Stage 3 and 4 patients. Among them, 43.6% (41/94) of paricalcitol patients and 48.5% (49/101) of placebo patients were diabetic.

Structures are written as SMILES.

Consider `C=C1/C(=C\C=C2/CCC[C@]3(C)[C@@H]([C@H](C)CCCC(C)(C)O)CC[C@@H]23)C[C@@H](O)C[C@@H]1O` [calcitriol], for which, in the series on PAI-1, the “potency in reducing the PAI-1 level” value is listed as “equally potent”. Also, the renin gene expression entry with renin gene expression was “able to inhibit renin gene expression”.

Consider `C[C@H](/C=C/[C@H](C)C(C)(C)O)[C@H]1CC[C@H]2/C(=C/C=C3C[C@@H](O)C[C@H](O)C3)CCC[C@]12C` [paricalcitol], for which the “renin mRNA expression” value with renin mRNA expression (FIG. 1) was “dose-dependently inhibits renin mRNA expression”. In addition, the “renin-inhibiting activity compared with calcitriol” value in the series on renin mRNA expression (FIGS. 1A and B) is reported as “a bit more potent than calcitriol”. Also, in the series with PAI-1, the PAI-1 level entry is listed as “able to decrease PAI-1 level” and the “potency in reducing the PAI-1 level” value was “equally potent”. Besides, the “potency on stimulating the expression of 24(OH)ase” value with 24(OH)ase was “less potent than calcitriol”. Moreover, in the series with renin gene promoter, the “suppression of the activity of the renin gene promoter compared with calcitriol” value is “at least as potent as calcitriol”. In series [1] (patients on ACEI/ARB therapy with proteinuria at baseline (22/42), placebo 27% (11/41), p=0.025), the “patients who had a decrease in proteinuria” value was 52%. Further, in series [1] (patients who could have an increase in proteinuria from baseline (18/76), placebo 29% (23/77), p=0.466), the “patients who experienced an increase in proteinuria, baseline to final visit” value worked out at 24%. Moreover, in series [1] (patients who had proteinuria at baseline (29/57), placebo 25% (15/61), p=0.004, 24 weeks treatment), the “patients who experienced a reduction in proteinuria, baseline to final visit” value is listed as 51%.

The values are drawn from patent US20050124591A1, “Use of vitamin Ds to treat kidney disease” (priority 2003, published 2005).
